According to patent US20080234233A1, “MEDICAMENT FOR TREATMENT OF NEURODEGENERATIVE DISEASES” (INSTITUTE OF MEDICINAL MOLECULAR DESIGN INC., priority 2002, published 2008):

Experiments:
AP-1 activation [1] = assay: Inhibition against AP-1 activation by TNF α stimulation, luciferase reporter assay in HeLa; format: cell-based, human; details: TNF-α 40 ng/ml, 4 hours; for inhibition at 1 µg/mL / inhibition at 10 µg/mL: Homo sapiens, read-out: Inhibitory rate against AP-1 activation(%)
Procedure: Measurement of Inhibition Against AP-1 Activation by TNF α Stimulation
Using a transfection reagent(Effectene; QIAGEN), the human uterine cancer cell strain HeLa was transfected with a plasmid(pAP-1-Luc Reporter Plasmid: […]) integrated with an oligonucleotide having seven tandem copies of AP-1 binding sequences(TGACTAA) on an upstream region of firefly luciferase gene(Luc) according to the QIAGEN's protocol, and the cells were incubated for 6 to 24 hours. After addition of TNF-α (40 ng/ml) in the presence or absence of a test compound, the cells were incubated for 4 hours, and intracellular luciferase activity was measured by using PicaGene LT(TOYO INK MFG Co., Ltd.) and a chemical luminescence measurement apparatus([…]luor Plus; TECAN). The inhibitory ratio was measured as a ratio relative to the value of the luciferase activity in the absence of the test compound.

NF-κ B activation = assay: Inhibitory activity of NF-κB activation, luciferase reporter assay under TNF-α stimulation in HepG2; format: cell-based, human; details: HepG2, TNF-α 40 ng/ml, 4 hours; for inhibition at 1 µg/mL / inhibition at 10 µg/mL: Homo sapiens, read-out: Inhibitory rate against NF-κB activation (%)
How it was run: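 HepG2 cells transiently transfected with luciferase reporter carrying five tandem NF-κB binding sites, then stimulated with TNF-α (40 ng/ml) ± compound for 4 hours. Luminescent luciferase activity measured; inhibition expressed relative to activity without compound.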

AP-1 activation [2] = assay: Inhibition against AP-1 activation by forced expression of MEKK-1, luciferase reporter assay in HepG2; format: cell-based, human; details: HepG2, MEKK-1 forced expression, 24 hours
Procedure: Measurement of Inhibition Against AP-1 Activation by Forced Expression of MEKK-1
Using a transfection reagent (Effectene; QIAGEN), the human hepatoma cell strain HepG2 was cotransfected with a plasmid (pAP-1-Luc Reporter Plasmid: […]) integrated with an oligonucleotide having seven tandem copies of AP-1 binding sequences (TGACTAA) on an upstream region of firefly luciferase gene (Luc) and the MEKK-1 expression plasmid (pFCMEKK: […]) according to the QIAGEN's protocol, and the cells were incubated for 20 to 24 hours. Then the cells were incubated in the presence or absence of a test compound for 24 hours, and then intracellular luciferase activity was measured by using PicaGene LT (TOYO INK MFG Co., Ltd.) and a chemical luminescence measurement apparatus ([…]luor Plus; TECAN). The inhibitory ratio was measured as a ratio relative to the value of the luciferase activity in the absence of the test compound.

[3] = tested on: rat hippocampus injected with human β amyloid; assay: Inhibitory activity against hypoplasia of memory formation (LTP), Alzheimer's model by injection of human β amyloid into the rat hippocampus; format: in vivo; details: 30 mg/kg intraperitoneally once a day, FIG. 1
Text: Several places of rat hippocampus were infused with a 1:1 mixture of A β 1-40 and A β 1-43 which are human β amyloids (Aβ) for 7 continuous days by the microinjection method. On the 8th day, bipolar stimulating electrodes were fixed to the perforate pathway, and recording electrodes were fixed to the stratum moleculare of the hippocampus dentate gyrus under urethane anesthesia. A mono-synaptic reaction was searched by about 14 to 20 mV of test pulse from the stimulating electrode. Long-term potentiations (LTP: neurophysiological memory model phenomena) were compared by the test simulation and tetanic stimulation, and the existence of hypoplasia of memory formation was verified which is a problem in Alzheimer's disease. Three days before the start of the injection of β amyloid, saline for the control group and the test compound (30 mg/kg) for the dosing group were administered intraperitoneally once a day, and a comparison of LTP was carried out.

GSK3 β = assay: Amount of phosphorylated GSK3 β in MOLT-4F cells; format: cell-based, human; details: 2 μM, 24 hours
Procedure: When Compound No. 4 (2 μM) of the present invention was allowed to act on MOLT-4F cells(human leukemia cells) for 24 hours, the amount of phosphorylated GSK3 β, produced by phosphorylation of GSK3 β, was increased, and it is well presumed that similar phenomena may possibly occur in nerve cells. Since GSK3 β is inactivated by the phosphorylation, it is considered that the increase of the amount of the phosphorylated GSK3 β substantially means the inhibition of GSK3 β. […] (Refer to “The Biochemical Journal”, (England), 2001, Vol. 359, No. PT1, p. 1-16; “Current Opinion in Neurobiology”, (England), 2002, Vol. 12, No. 3, p. 275-278; “Trends in Molecular Medicine”, (England), 2002, Vol. 8, No. 3, p. 126-132; “Proceedings of The National Academy of Sciences of The United States of America”, (USA), 1996, Vol. 93, No. 7, p. 2719-2723; “The Journal of Biological Chemistry”, (USA), 2002, Vol. 277, No. 44, p. 42060-42065; “Proceedings of The National Academy of Sciences of The United States of America”, (USA), 2003, Vol. 100, No. 2, p. 721-726; “Annals of The New York Academy of Sciences”, (USA), 2000, Vol. 920, p. 107-114; “Nature”, (England), 2003, Vol. 423, No. 6938, p. 435-439; and “Neuron”, (USA), 2003, Vol. 38, No. 4, p. 555-565.)

| SMILES | Inhibitory rate against AP-1 activation(%) (AP-1 activation [1]; Drug concentration at 10 μg/mL) | Inhibitory rate against NF-κB activation (%) (NF-κ B activation; Drug concentration at 1 μg/mL) | Inhibitory rate against NF-κB activation (%) (NF-κ B activation; Drug concentration at 10 μg/mL) | further results |
| --- | --- | --- | --- | --- |
| O=C(Nc1nc(-c2ccccc2)c(C(=O)O)s1)c1cc(Br)ccc1O [compound 217, 2-(5-bromo-2-hydroxybenzoyl)amino-4-phenylthiazole-5-carboxylic acid] |  |  |  | inhibition at 1 µg/mL (AP-1 activation [1]; Drug concentration at 1 μg/mL): 21.7%; inhibition at 10 µg/mL (AP-1 activation [1]; Drug concentration at 10 μg/mL): 55.3% |
| O=C(Nc1cc(C(F)(F)F)cc(C(F)(F)F)c1)c1cc(I)ccc1O [compound 7, N-[3,5-bis(trifluoromethyl)phenyl]-2-hydroxy-5-iodobenzamide] |  |  |  | inhibition at 1 µg/mL (AP-1 activation [1]; Drug concentration at 1 μg/mL): 25.4%; inhibition at 10 µg/mL (AP-1 activation [1]; Drug concentration at 10 μg/mL): 82.4%; inhibition at 1 µg/mL (NF-κ B activation; Drug concentration at 1 μg/mL): 86.6%; inhibition at 10 µg/mL (NF-κ B activation; Drug concentration at 10 μg/mL): 85.4% |
| O=C(Nc1cc(C(F)(F)F)cc(C(F)(F)F)c1)c1cc(/C=C/c2ccccc2)ccc1O [compound 19] | 33.9 | 95.5 | 96.9 |  |
| CC(C)(C)C(=O)c1sc(NC(=O)c2cc(Cl)ccc2O)nc1C(C)(C)C [compound 199, 5-Chloro-N-{4-[(1,1-dimethyl)ethyl]-5-[(2,2-dimethyl)propionyl]thiazol-2-yl}-2-hydroxybenzamide] |  |  |  | Inhibitory ratio of AP-1 activation(%) (AP-1 activation [2]; Drug concentration 1 μg/mL): 70.6%; inhibition at 1 µg/mL (NF-κ B activation; Drug concentration at 1 μg/mL): 96.4%; inhibition at 10 µg/mL (NF-κ B activation; Drug concentration at 10 μg/mL): 98.4% |
| O=C(Nc1cc(C(F)(F)F)cc(C(F)(F)F)c1)c1cc(-c2ccccc2)ccc1O [compound 23] | 60.9 | 91.8 | 96.8 | Inhibitory rate against AP-1 activation(%) (AP-1 activation [1]; Drug concentration at 1 μg/mL): 18.1% |
| CC(=O)Oc1ccccc1C(=O)Nc1cc(Cl)cc(Cl)c1 [compound 120, 2-acetoxy-N-(3,5-dichlorophenyl)benzamide] |  |  |  | melting point: 218 to 219 °C; inhibition at 1 µg/mL (NF-κ B activation; Drug concentration at 1 μg/mL): 88.6%; inhibition at 10 µg/mL (NF-κ B activation; Drug concentration at 10 μg/mL): 97.5% |
| O=C(Nc1cc(C(F)(F)F)cc(C(F)(F)F)c1)c1cc(Cl)cnc1O [compound 75] | 56.7 | 58.1 | 82.2 | Inhibitory rate against AP-1 activation(%) (AP-1 activation [1]; Drug concentration at 1 μg/mL): 33.3% |
| O=C(Nc1cc(C(F)(F)F)cc(C(F)(F)F)c1)c1cc(Cl)ccc1O [compound 4, N-[3,5-bis(trifluoromethylphenyl)]-5-chloro-2-hydroxybenzamide] | 89.1 | 95.7 | 97.5 | inhibitory activity against hypoplasia of memory (LTP) [3]: inhibitory activity against hypoplasia of memory; Inhibitory rate against AP-1 activation(%) (AP-1 activation [1]; Drug concentration at 1 μg/mL): 42.4%; amount of phosphorylated GSK3 β (GSK3 β): increased |
| CCc1sc(NC(=O)c2cc(Br)ccc2O)nc1C(C)(C)C [compound 195, 5-Bromo-N-{4-[(1,1-dimethyl)ethyl]-5-ethylthiazol-2-yl}-2-hydroxybenzamide] |  |  |  | Inhibitory ratio of AP-1 activation(%) (AP-1 activation [2]; Drug concentration 1 μM): 91.2%; Inhibitory ratio of AP-1 activation(%) (AP-1 activation [2]; Drug concentration 1 μg/mL): 95.5%; inhibition at 1 µg/mL (NF-κ B activation; Drug concentration at 1 μg/mL): 90.5%; inhibition at 10 µg/mL (NF-κ B activation; Drug concentration at 10 μg/mL): 98.1% |
| O=C(Nc1cc(C(F)(F)F)cc(C(F)(F)F)c1)c1cc(C(=O)N2CCC(Cc3ccccc3)CC2)ccc1O [compound 40, N-[3,5-Bis(trifluoromethyl)phenyl]-2-hydroxy-5-(4-benzylpiperidine-1-carbonyl)-benzamide] |  |  |  | melting point: 179 to 180 °C; inhibition at 1 µg/mL (NF-κ B activation; Drug concentration at 1 μg/mL): 44.9%; inhibition at 10 µg/mL (NF-κ B activation; Drug concentration at 10 μg/mL): 96% |
| O=C(Nc1cc(C(F)(F)F)cc(C(F)(F)F)c1)c1cc(C#Cc2ccccc2)ccc1O [compound 22, N-[3,5-bis(trifluoromethyl)phenyl]-2-hydroxy-5-(phenylethynyl)-benzamide] |  |  |  | inhibition at 10 µg/mL (AP-1 activation [1]; Drug concentration at 10 μg/mL): 44.1%; inhibition at 1 µg/mL (NF-κ B activation; Drug concentration at 1 μg/mL): 83.9%; inhibition at 10 µg/mL (NF-κ B activation; Drug concentration at 10 μg/mL): 97.1% |

Now from value to molecule, other results behind:

| Inhibitory rate against AP-1 activation(%) (AP-1 activation [1]; Drug concentration at 10 μg/mL) | Inhibitory rate against NF-κB activation (%) (NF-κ B activation; Drug concentration at 1 μg/mL) | Inhibitory rate against NF-κB activation (%) (NF-κ B activation; Drug concentration at 10 μg/mL) | SMILES | further results |
| --- | --- | --- | --- | --- |
| 49.9 | 85.3 | 94.4 | O=C(Nc1nc(C(F)(F)F)c(Br)s1)c1cc(Br)ccc1O [compound 187] |  |
|  | 69.9 | 96.0 | CC(=O)Nc1cc(O)c(C(=O)Nc2cc(C(F)(F)F)cc(C(F)(F)F)c2)cc1Cl [compound 50, 4-Acetylamino-N-[3,5-bis(trifluoromethyl)phenyl]-5-chloro-2-hydoxybenzamide] | Inhibitory ratio of AP-1 activation(%) (AP-1 activation [2]; Drug concentration 1 μM): 90.7%; Inhibitory ratio of AP-1 activation(%) (AP-1 activation [2]; Drug concentration 1 μg/mL): 99.4% |
| 67.7 | 94.2 | 97.0 | O=C(Nc1cc(Cl)cc(Cl)c1)c1cc(F)ccc1O [compound 124] |  |
| 33.5 | 34.6 |  | CCOC(=O)c1sc(NC(=O)c2cc(-c3ccccc3)ccc2O)nc1-c1ccccc1 [compound 225] |  |
| 83.8 | 77.1 | 92.8 | O=C(Nc1cc(Cl)cc(Cl)c1)c1cc(Br)ccc1O [compound 126] | Inhibitory rate against AP-1 activation(%) (AP-1 activation [1]; Drug concentration at 1 μg/mL): 39.3% |
| 29.7 |  | 67.0 | O=C(Nc1nc(-c2ccccc2)c(-c2ccccc2)s1)c1cc(Br)ccc1O [compound 211] |  |
| 51.5 | 81.7 | 92.9 | O=C(Nc1cc(C(F)(F)F)cc(C(F)(F)F)c1)c1cc(-c2ccsc2)ccc1O [compound 29] |  |
| 91.2 | 94.9 | 98.6 | O=C(Nc1cc(C(F)(F)F)cc(C(F)(F)F)c1)c1cc(Br)ccc1O [compound 6] | Inhibitory rate against AP-1 activation(%) (AP-1 activation [1]; Drug concentration at 1 μg/mL): 48.4% |
| 74.8 | 84.5 | 96.8 | O=C(Nc1cc(Cl)cc(Cl)c1)c1cc(Cl)ccc1O [compound 125] | Inhibitory rate against AP-1 activation(%) (AP-1 activation [1]; Drug concentration at 1 μg/mL): 22.7% |
| 75.4 | 85.4 | 97.1 | O=C(Nc1cc(Cl)cc(Cl)c1)c1cc(I)ccc1O [compound 127] |  |
